“Also recorded” adds a separate entry of the source.
Experiments:
[1] = systemic cotinine; cited from earlier work
[2] = in vivo
[3] = gum and patch papers; cited from earlier work
clinical = settings: in vivo
[4] = Benowitz et al., cited from earlier work
[5] = cited from earlier work
[6] = nicotine base; cited from earlier work
[7] = Example 1: nicotine pharmacokinetics after IV, oral and rectal enema administration in healthy volunteers
Experimental: Intravenous nicotine was prepared using a nicotine base, supplied as the tartrate salt (Fisher Scientific/Eastman Kodak Company, Rochester, N.Y.). Solutions for injection were made up by combining 1.5 mg nicotine base (4.44 mg tartrate salt) in 100 ml of 0.9% sterile normal saline to form a 15 mcg/mL solution. The intravenous solution was filtered through a 0.22 micron filter into a sterile container and under sterile conditions. The solution was then cultured for organisms, assayed for endotoxin, and chemically analyzed prior to infusion to assure stable nicotine concentration. These samples were then be stored in sealed vials until the time of administration.
Thirty paid human volunteers were admitted to the pharmacokinetic study after giving informed consent to a protocol approved by the institutional review board at the Mayo Clinic, Rochester, Minn. The subjects ranged in age from 21-56 and their body weights ranged from 45 to 153 Kg. […]
Each subject underwent 2 investigations (IV and non-IV) of 8 hours duration at least 1 week apart. […] Plasma concentrations of nicotine were determined by gas chromatography/mass spectrometry as described by Baskin et al. (Clin. Chem., 31:76-80 (1991)).
For this study, the maximum plasma nicotine concentration (Cmax) and the time to reach Cmax (Tmax) were defined as the highest measured plasma concentrations and the time of the sample, respectively.

[8] = Example 1: side effects (questionnaire) versus plasma nicotine concentration; type: in vivo, human
Experimental: Intraindividual side effects occurred during each study, as determined by a questionnaire filled out every 30 minutes, closely correlated with plasma nicotine concentrations. However, the threshold above which symptoms appeared varied from individual to individual with the nicotine concentration at which side effects first appeared ranging from 2.4 ng/mL to 9.9 ng/mL (although some subjects had nicotine concentrations of >11 ng/mL without symptoms).

SMILES	activity relative to nicotine [1]	combination with 5-ASA, sulphasalazine, corticosteroids or budesonide [2]	efficacy compared with high dosage transdermal patch [2]	remission (clinical response) [2]	general side effects of nicotine administration [3]	Fa (clinical) [%]	mean bioavailability for the oral dose [4]	CLb ([4]; IV, heavy smokers)	T1/2 ([4]; IV, heavy smokers)	Vdss ([4]; IV, heavy smokers)	effect on mucus ([5]; colonic mucus synthesis)	effect on rectal blood flow ([5]; patients with ulcerative colitis)	effect on mucosal production of eicosanoids ([5]; prostaglandin E, 6-keto-PGF1a, leukotrienes)	mucus thickness ([5]; rabbits, high doses, versus controls)	absorption through mucous membranes and skin [6]	bioavailability / tolerability in words [7]	nicotine concentration without symptoms ([8]; some subjects) [ng/mL]	side effects observed ([8]; when side effects occurred, variable frequency)
CN1C(=O)CC[C@H]1c1cccnc1 [cotinine]	less active metabolite than nicotine																	
CN1CCCC1c1cccnc1 (stereo not drawn) [nicotine]		appears to show a synergistic effect	at least as efficacious as high dosage transdermal patch	up to 70%	nausea, vomiting, headaches, insomnia, somnolence, diaphoresis, pre-syncope and tremor	~20	44 (9%)	66 (8 L/hr)	203 (61 min.)	3.0 (0.7 L/Kg)	appears to increase mucus synthesis to levels observed in healthy subjects	can reduce rectal blood flow to the normal range	appears to reduce mucosal production of eicosanoids	greater mucus thickness as compared to controls	readily absorbed through mucous membranes and intact skin	low bioavailability and was well tolerated; also recorded: low or negligible bioavailability and was well tolerated	> 11	nausea, lightheadedness, and diaphoresis

— patent US5889028A, “Colonic delivery of nicotine to treat inflammatory bowel disease” (priority 1997, dated 1999)
